22 compounds from ChEMBL document CHEMBL1201862, “PubChem BioAssay data set” (2004) can be followed below.

Some targets named below: Cytochrome P450 3A4 (Homo sapiens, UniProt P08684); Cytochrome P450 2C9 (Homo sapiens, UniProt P11712); Cytochrome P450 2D6 (Homo sapiens, UniProt P10635).
Data set [1] can be described thus: cytotoxicity toward DRD oncogenic fibroblasts, dose response, cell-based, non-viral oncogenic, luminescence (AID 1934). It counts as functional. The settings on record: Homo sapiens.
The test system of data set [2] is BJ. The data set can be described thus: cells. It counts as functional, cell-based. The following applies: Homo sapiens.
Data set [3] has as its system BJ. Description: cytotoxicity toward BJ-TERT-LT-ST fibroblasts, dose response, cell-based, RAS-independent, luminescence (AID 1935).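 Also: BJ fibroblasts immortalized with TERT plus LT and ST oncogenes.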 It counts as functional. The settings on record: Homo sapiens.
The test system of data set [4] is BJ. The data set can be described thus: cytotoxicity toward BJ-TERT fibroblasts, dose response, cell-based, RAS-independent, luminescence (AID 1933). It is filed as functional. The following applies: Homo sapiens.
Data set [5] deals with T1, Zinc finger protein mex-5 (Caenorhabditis elegans, UniProt Q9XUB2).
T1 sequence (Q9XUB2 whole entry): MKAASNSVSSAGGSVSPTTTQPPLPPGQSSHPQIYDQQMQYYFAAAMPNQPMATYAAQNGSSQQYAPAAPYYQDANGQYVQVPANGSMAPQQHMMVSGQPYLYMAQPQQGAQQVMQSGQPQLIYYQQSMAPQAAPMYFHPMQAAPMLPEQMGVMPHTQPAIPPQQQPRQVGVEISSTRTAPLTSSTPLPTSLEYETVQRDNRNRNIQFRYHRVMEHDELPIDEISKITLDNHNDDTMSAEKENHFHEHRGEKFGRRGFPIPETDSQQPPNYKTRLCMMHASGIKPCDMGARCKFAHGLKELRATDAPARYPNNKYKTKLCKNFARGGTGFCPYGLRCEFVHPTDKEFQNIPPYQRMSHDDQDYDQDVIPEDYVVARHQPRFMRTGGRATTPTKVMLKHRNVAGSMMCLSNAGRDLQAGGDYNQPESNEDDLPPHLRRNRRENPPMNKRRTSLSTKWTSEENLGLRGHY
Description: MEX-5/TCR-2 RNA interaction inhibitors, dose response, biochemical, C. elegans, fluorescence polarization (AID 1960). On the technique in general: Fluorescence polarisation rises when a labelled molecule tumbles more slowly, as on binding a larger partner.

In data set [6] the target is T2, RNA-binding protein pos-1 (Caenorhabditis elegans, UniProt G5EF15).
T2 sequence (G5EF15 whole entry): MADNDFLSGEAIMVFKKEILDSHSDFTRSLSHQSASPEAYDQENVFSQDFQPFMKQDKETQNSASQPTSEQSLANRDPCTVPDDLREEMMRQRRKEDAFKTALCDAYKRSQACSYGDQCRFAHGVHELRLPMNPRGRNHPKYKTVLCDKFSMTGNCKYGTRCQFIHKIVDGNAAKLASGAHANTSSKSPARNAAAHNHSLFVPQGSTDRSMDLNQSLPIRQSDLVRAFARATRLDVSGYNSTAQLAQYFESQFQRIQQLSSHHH
Description: inhibitors of POS-1/mex-3 RNA binding, dose response, biochemical, fluorescence polarization (AID 1964).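 Also: purified POS-1 fused to maltose binding protein made in E. coli; potency of compounds blocking POS-1 binding to fluorescent RNA.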

The target of the next data set is T3, Leucine aminopeptidase (Plasmodium falciparum 3D7, UniProt Q8IL11).
T3 sequence (Q8IL11 whole entry): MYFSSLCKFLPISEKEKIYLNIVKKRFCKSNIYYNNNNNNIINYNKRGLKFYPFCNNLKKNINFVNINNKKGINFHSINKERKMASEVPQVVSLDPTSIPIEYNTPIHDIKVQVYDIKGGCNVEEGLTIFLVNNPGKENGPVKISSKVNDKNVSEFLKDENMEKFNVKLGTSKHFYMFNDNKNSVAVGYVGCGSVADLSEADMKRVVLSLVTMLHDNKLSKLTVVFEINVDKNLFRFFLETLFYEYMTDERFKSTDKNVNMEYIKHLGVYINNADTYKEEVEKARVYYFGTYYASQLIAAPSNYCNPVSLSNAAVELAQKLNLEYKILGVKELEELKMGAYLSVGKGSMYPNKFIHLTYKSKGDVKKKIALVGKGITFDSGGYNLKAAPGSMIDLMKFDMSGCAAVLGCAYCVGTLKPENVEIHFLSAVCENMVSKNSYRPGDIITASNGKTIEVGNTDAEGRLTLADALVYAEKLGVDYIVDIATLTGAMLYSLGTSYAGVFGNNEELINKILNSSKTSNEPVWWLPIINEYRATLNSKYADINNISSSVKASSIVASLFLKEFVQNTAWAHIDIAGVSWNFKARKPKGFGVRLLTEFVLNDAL
Description: P. falciparum M17LAP inhibitors, primary screen, biochemical, fluorogenic H-Leu-NHMec substrate, 1536-well (AID 1619). It counts as functional.

A short description of data set [7]: Luminescence Cell-Based Dose Confirmation HTS to Identify Activators of 5'UTR Stem-Loop Driven Alpha-Synuclein mRNA Translation in H4 Neuroglioblastoma Cells. [Related pubchem assays: 1829 (Project Summary), 1814 (Primary HTS)]. It counts as functional.
The next data set deals with H4. The data set can be described thus: Luminescence Cell-Based Dose Response HTS to Identify Activators of 5'UTR Stem-Loop Driven Prion Protein mRNA Translation in H4 Neuroglioblastoma Cells. [Related pubchem assays: 1829 (Project Summary), 1814 (Primary HTS)]. It is filed as functional. The following applies: Homo sapiens.
The nature of data set [8]: Luminescence Cell-Based Dose Response HTS to Identify Activators of Luciferase Translation or Activity in H4 […] Cells. [Related pubchem assays: 1829 (Project Summary), 1814 (Primary HTS)]. It is filed as functional.
In data set [9] the target is Luciferin 4-monooxygenase (Photinus pyralis, UniProt P08659). The data set can be described thus: firefly luciferase enzyme inhibitors, dose response, biochemical, luminescence (AID 1891).
Data set [10] in a line: Luminescence Cell-Based Dose Confirmation HTS to Identify Inhibitors of Platelet Dense Granule Release. [Related pubchem assays: 1663 (Primary HTS), 1678 (Summary of Project)]. It counts as functional.
Data set [11] has as its target FAD-linked sulfhydryl oxidase ALR (Homo sapiens, UniProt P55789). The data set can be described thus: inhibitors of human ALR sulfhydryl oxidase, dose response, biochemical, H2O2 detection, luminescence, cherry-pick (AID 493248).
Data set [12] can be described thus: P. falciparum Dd2 growth inhibitors, dose response, SYBR Green, dry powder samples, set 9 (AID 1159568). It counts as functional, cell-based.
The nature of data set [13]: microbe, parasite or virus in culture. The following applies: Mycobacterium tuberculosis. It is filed as functional.
In a further data set the target is T4, Streptokinase A (Streptococcus pyogenes serotype M1, UniProt P10520).
T4 sequence (P10520 whole entry): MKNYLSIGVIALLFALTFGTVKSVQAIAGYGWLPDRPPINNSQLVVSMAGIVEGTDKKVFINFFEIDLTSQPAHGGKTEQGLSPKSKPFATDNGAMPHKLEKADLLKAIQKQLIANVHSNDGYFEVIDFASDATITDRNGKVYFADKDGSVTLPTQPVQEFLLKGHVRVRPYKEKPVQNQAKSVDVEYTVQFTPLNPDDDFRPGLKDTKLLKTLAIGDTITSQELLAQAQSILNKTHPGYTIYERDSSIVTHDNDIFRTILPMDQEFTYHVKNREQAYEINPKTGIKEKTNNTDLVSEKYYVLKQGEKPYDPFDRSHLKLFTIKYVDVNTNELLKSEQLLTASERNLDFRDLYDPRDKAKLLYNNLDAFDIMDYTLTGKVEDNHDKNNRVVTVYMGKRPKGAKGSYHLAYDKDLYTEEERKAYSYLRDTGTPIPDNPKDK
Description: S. pyogenes streptokinase expression inhibitors, potency, dose response, plasminogen activation absorbance, OD405 (AID 1914).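 Also: secreted streptokinase activity via plasminogen activation per viability signal from cell pellet.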 It is filed as functional, Streptococcus pyogenes M1 GAS.

The subject of a further data set is Streptococcus. Description: Group A Streptococcus viability loss, dose response, counter-screen for streptokinase expression inhibitor project, luminescence, BacTiterGlo (AID 1915).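 Also: potency for reduction of bacterial viability or growth.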 It is filed as functional, organism-based. For orientation: A counterscreen serves to expose hits that act by an unwanted route or on another target.
Data set [14] concerns Streptococcus sp. 'group A'. The data set can be described thus: growth inhibition of control SK(-) GAS strain, dose response, counter-screen for streptokinase expression inhibitor project, luminescence, kanamycin, BacTiterGlo, confirmation (AID 1900). It is filed as functional, organism-based.
For a further data set, the target named is Large T antigen (Simian virus 40, UniProt P03070). It is filed as functional, Betapolyomavirus macacae.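 Also: Confirmatory-stage PubChem screen for compounds that inhibit SV40 T antigen.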

Calls of active or inactive are those of the source. Rule as the data show it, for most assays here: actives have a measured EC50 and inactives only a lower limit. Bounds are passed on as bounds.

Sequence of Cytochrome P450 2C9 (P11712 whole entry): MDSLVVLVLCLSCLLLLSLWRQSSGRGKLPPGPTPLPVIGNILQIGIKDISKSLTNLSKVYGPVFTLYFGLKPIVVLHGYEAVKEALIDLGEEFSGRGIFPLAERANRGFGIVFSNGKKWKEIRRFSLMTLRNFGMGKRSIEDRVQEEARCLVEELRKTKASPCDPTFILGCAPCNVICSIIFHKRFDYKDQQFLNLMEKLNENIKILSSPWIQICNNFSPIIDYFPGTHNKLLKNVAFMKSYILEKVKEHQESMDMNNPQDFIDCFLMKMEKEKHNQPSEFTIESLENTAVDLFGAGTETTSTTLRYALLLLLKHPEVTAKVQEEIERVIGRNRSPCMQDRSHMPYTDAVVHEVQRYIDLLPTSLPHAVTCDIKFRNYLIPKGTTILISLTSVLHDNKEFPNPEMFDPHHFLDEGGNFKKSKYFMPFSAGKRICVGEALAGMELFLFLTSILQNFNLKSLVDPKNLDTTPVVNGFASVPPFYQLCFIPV
Sequence of Cytochrome P450 3A4 (P08684 whole entry): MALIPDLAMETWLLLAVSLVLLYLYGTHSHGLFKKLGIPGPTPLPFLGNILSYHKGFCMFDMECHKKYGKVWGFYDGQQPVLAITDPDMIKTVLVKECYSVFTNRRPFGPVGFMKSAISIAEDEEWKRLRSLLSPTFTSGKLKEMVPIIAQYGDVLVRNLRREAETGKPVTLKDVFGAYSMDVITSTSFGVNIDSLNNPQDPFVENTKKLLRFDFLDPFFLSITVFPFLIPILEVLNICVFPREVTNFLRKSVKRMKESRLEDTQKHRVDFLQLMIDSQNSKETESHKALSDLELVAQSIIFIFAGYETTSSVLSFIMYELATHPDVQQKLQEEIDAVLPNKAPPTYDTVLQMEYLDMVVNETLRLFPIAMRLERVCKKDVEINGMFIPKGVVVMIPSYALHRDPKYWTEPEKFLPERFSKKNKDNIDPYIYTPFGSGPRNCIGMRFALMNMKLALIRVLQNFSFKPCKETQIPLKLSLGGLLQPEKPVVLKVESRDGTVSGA
Sequence of Large T antigen (P03070 whole entry): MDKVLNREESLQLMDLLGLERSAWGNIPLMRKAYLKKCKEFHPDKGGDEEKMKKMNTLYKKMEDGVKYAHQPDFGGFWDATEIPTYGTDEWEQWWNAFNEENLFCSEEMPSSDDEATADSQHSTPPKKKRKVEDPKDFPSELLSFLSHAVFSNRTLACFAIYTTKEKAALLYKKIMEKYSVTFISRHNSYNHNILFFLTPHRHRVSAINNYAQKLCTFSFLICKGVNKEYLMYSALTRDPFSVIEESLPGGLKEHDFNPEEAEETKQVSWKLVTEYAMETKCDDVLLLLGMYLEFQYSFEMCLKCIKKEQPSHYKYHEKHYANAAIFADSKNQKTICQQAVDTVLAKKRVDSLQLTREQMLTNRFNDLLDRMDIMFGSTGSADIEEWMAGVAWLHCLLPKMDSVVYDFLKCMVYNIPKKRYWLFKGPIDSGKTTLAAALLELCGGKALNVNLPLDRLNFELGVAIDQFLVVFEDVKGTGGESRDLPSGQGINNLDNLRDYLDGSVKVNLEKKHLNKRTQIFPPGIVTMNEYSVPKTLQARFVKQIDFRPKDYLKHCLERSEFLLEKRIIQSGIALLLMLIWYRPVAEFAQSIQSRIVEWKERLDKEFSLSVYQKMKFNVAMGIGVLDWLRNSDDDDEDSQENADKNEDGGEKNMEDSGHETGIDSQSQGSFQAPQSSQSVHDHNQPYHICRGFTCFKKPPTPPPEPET
Sequence of FAD-linked sulfhydryl oxidase ALR (P55789 whole entry): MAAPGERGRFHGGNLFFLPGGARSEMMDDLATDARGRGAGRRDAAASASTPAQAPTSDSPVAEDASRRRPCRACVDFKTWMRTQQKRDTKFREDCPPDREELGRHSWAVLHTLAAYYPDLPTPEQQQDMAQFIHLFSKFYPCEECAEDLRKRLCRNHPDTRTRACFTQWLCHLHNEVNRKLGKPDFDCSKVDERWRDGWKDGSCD
Sequence of Cytochrome P450 2D6 (P10635 whole entry): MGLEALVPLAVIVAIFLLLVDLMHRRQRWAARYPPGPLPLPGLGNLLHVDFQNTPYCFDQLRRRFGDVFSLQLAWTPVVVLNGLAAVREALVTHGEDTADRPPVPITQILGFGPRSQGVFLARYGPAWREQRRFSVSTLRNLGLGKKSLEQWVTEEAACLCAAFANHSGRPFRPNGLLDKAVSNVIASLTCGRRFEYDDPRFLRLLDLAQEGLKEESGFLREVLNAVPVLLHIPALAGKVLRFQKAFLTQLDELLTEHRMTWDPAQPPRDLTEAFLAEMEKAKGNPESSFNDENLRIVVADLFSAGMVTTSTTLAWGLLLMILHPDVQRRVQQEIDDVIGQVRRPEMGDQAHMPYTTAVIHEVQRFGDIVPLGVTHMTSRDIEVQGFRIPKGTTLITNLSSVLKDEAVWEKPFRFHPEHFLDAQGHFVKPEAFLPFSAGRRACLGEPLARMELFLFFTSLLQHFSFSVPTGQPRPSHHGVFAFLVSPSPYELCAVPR
Sequence of Luciferin 4-monooxygenase (P08659 whole entry): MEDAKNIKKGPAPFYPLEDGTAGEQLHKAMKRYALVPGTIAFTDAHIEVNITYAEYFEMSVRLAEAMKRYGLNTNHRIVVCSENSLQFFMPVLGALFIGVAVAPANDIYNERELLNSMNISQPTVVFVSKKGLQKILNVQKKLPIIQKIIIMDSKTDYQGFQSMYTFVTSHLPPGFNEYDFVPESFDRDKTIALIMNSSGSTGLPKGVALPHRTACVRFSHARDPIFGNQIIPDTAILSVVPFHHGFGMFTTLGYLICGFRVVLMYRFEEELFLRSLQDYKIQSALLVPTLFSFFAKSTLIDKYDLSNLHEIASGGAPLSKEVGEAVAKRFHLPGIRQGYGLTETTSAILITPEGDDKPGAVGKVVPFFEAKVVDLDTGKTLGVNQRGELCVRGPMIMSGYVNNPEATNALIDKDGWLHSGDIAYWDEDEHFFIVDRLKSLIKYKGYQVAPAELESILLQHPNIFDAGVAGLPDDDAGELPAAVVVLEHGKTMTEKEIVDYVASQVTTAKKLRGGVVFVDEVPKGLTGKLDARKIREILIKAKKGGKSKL

Regarding `O=C(CN1C(=O)c2ccccc2C1=O)NCC(=O)OCC(=O)c1ccc(Br)cc1`, the figures for the AC50 on Cytochrome P450 3A4 and on Cytochrome P450 2C9 were 3.55 µM (inconclusive) and “inconclusive”, respectively.
For `COc1cc(C(=O)c2cocc2C(=O)c2ccc3c(c2)OCO3)cc(OC)c1OC`, the EC50 (as a rule, the concentration at which the effect is half-maximal) in data set [1] was 1.45 µM (active); with BJ [2], 38.6 µM (inconclusive); with BJ [3], 2.57 µM (inconclusive); in the data set on BJ [4], 2.71 µM (active).
As for `CC1=NN(C(N)=S)C(=O)C1N=Nc1ccc(S(N)(=O)=O)cc1` (stereo not drawn), the results for the EC50 in data set [5] and in [6] were 8.86 µM (active) and 19.7 µM (active), respectively.
In the case of `COc1ccc(NC(=O)CSc2c(C)nn(-c3nnc(C)c(=O)[nH]3)c2C)cc1`, the IC50 (as a rule, the concentration at which inhibition is half-maximal) at Leucine aminopeptidase was 83.7 µM (active).
As for `CC(=O)Nc1cccc(Oc2nc(-c3ccccn3)nc3ccccc23)c1`, the EC50 is 92.7 µM (active) in data set [7]; 5.2 µM (active) in data set [5]; 79.3 µM (active) in data set [6]; 7.56 µM (active) in the data set with H4; 11.8 µM (active) in data set [8].
In the case of `CCC(=O)c1ccc(OCC(=O)Nc2ccccc2N2CCCCC2)cc1`, the EC50 in data set [1] is > 150 µM (not active); in the data set on BJ [2], 35.6 µM (active); in the data set on BJ [3], > 150 µM (not active); with BJ [4], > 150 µM (not active).
For `CCOC(=O)c1cccc(NC(=O)CSc2nc(N)cc(N)n2)c1`, the IC50 on Leucine aminopeptidase is 13.8 µM (active).
Consider `Cc1ccc(N2C(=O)c3ccccc3C2O)nc1` (stereo not drawn), for which the EC50 in data set [1] is 7.47 µM (inconclusive); in data set [9] it was 6.56 µM (active); in [10] it was 1.74 µM (active); with BJ [3] it was > 75 µM (inconclusive); in the data set with BJ [4] it was 8.32 µM (active).
For the compound `CCN(CC)c1ccc(NC(=O)Cn2cc3c(n2)CCC(C)C3)c(C)c1` (stereo not drawn), the AC50 (commonly the midpoint of the concentration-response curve, whichever way the signal moves) in data set [11] was 48.8 µM (active). At Leucine aminopeptidase, the IC50 was 6.41 µM (active).
Take `Cc1nn(C)c(C)c1CN(C)C(=O)C1c2ccccc2Oc2ccccc21`: the EC50 in data set [5] was 9.86 µM (active); in data set [6], 15.5 µM (active).
On to `Cc1ccc(C(=O)c2cc3ccccc3o2)cc1[N+](=O)[O-]`, for which the 50% effective concentration (EC50) in data set [1] was > 150 µM (not active); in the data set with BJ [2], > 150 µM (not active); in the data set on BJ [3] it was > 150 µM (inconclusive); in the data set with BJ [4], > 150 µM (not active).
Take `Cn1c(=O)c2cc(S(=O)(=O)NCCC(=O)NCc3ccccc3Cl)ccc2n(C)c1=O`: the AC50 result on Cytochrome P450 2C9 is “inconclusive”; on Cytochrome P450 2D6, 17.8 µM (inconclusive).
`CCOC(=O)c1cc2c(=O)n3ccccc3nc2n(C(C)C)/c1=N\C(=O)c1ccncc1`: the EC50 in data set [5] and in [6] was > 300 µM (not active) each time.
Regarding `CSc1nnc(-c2ccccc2/N=C/c2c(C)nn(-c3ccccc3)c2O)c(O)n1`, the half-maximal inhibitory concentration (IC50) at Leucine aminopeptidase is 48.6 µM (active).
For `C/N=C1\S/C(=C\c2cn(CC(=O)OC)c3ccccc23)C(=O)N1C`, the EC50 in data set [5] and in [6] was > 300 µM (not active) each time.
As for `COc1ccc2c3c([nH]c2c1)[C@H](CO)N(C(C)=O)CC31CCN(C(=O)Nc2ccc(F)cc2F)CC1`, the AC50 in data set [12] was 0.548 µM (active).
The same measure, in the same setting: with `C[C@H](CO)N1C[C@H](C)[C@H](CN(C)S(=O)(=O)c2ccccc2)OCCCC[C@H](C)Oc2ccc(NC(=O)Nc3ccc4c(c3)OCO4)cc2C1=O` the figure was 8.9 µM (active); with `O=C(Cc1ccccn1)N1CC2(C1)[C@H](c1ccccc1)[C@H](CO)N2C(=O)c1ccncc1`, 30 µM (active).
Same read-out and setting: with `C[C@@H]1CCCCO[C@@H](CN(C)S(=O)(=O)c2ccc(F)cc2)[C@H](C)CN([C@@H](C)CO)C(=O)c2cc(N(C)C)ccc2O1` the figure was 7.31 µM (active).
Consider `C[C@@H]1CN([C@@H](C)CO)C(=O)c2ccccc2-c2ccccc2CO[C@@H]1CN(C)S(=O)(=O)Cc1ccccc1`, for which, in data set [12], the AC50 was 21.9 µM (active).
In the case of `O=C(O)c1ccc(-n2cccc2)cc1O`, the EC50 in data set [5] and in data set [6] was > 300 µM (not active) in each case.
As to `N=C(N)N/N=C1C=C/C(=N\NC(N)=S)C=C\1` [AMBAZONE], the CC50 in [13] is > 40 µM (active). Further, the EC50 at Streptokinase A was > 150 µM (not active); in data set [5] it was 9.73 µM (active); in data set [6] it was 76.5 µM (active); in the data set with Streptococcus it was 350 nM (active); in [14], < 60 nM (active). Further, the concentration for half-maximal inhibition (IC50) at Large T antigen is 13.7 µM (active).
